# According to patent US10774064B2 (Cadent Therapeutics, Inc., priority 2016, dated 2020):
# Target: T1, small-conductance Ca2+-activated K+ channels (SK channels, subtype 2) (Homo sapiens, UniProt Q9H2S1)
# T1 construct: expressed in transfected cells; host or cells: HEK293
# Experiment: whole-cell patch-clamp of ionic current through SK2 channels in HEK293 cells (SC100)
# Format: cell-based
# Details: concentration that increases the basal current by 100%; HEK293 cells expressing SK2 channels
# Procedure, shortened: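 Whole-cell patch-clamp recording of current in HEK293 cells expressing SK2 channels. SC100 is the compound concentration that increases basal current by 100%.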
row,SMILES,SC100
1,"Cc1cc(NC2CCC(F)(F)CC2)nc(-n2ccc(C#N)n2)n1 [Compound 212, 1-(4-((4,4-difluorocyclohexyl)amino)-6-methylpyrimidin-2-yl)-1H-pyrazole-3-carbonitrile]",+ (+ means >1 uM)
2,"Cc1cc(C)n(-c2cc(N(C)C3COC3)cc(N(C)C3CCC(F)(F)CC3)n2)n1 [Compound 240, N2-(4,4-difluorocyclohexyl)-6-(3,5-dimethyl-1H-pyrazol-1-yl)-N2,N4-dimethyl-N4-(oxetan-3-yl)pyridine-2,4-diamine]",+ (+ means >1 uM)
3,"Cc1cc(C)n(-c2cc(N[C@H]3CCN(C)C3=O)cc(NC3CCC(F)(F)CC3)n2)n1 (single isomer, unassigned) [Compound 138, (+)-3-((2-((4,4-difluorocyclohexyl)amino)-6-(3,5-dimethyl-1H-pyrazol-1-yl)pyridin-4-yl)amino)-1-methylpyrrolidin-2-one]",+ (+ means >1 uM)
4,"Cc1cc(C)n(-c2cc(-n3cccn3)cc(NC3CCC(F)(F)CC3)n2)n1 [Compound 127, N-(4,4-difluorocyclohexyl)-6-(3,5-dimethyl-1H-pyrazol-1-yl)-4-(1H-pyrazol-1-yl)pyridin-2-amine]",++ (++ means 200 nM-1000 nM)
5,"Cc1cc(C)n(-c2cc(O)cc(NC3CCC(F)(F)CC3)n2)n1 [Compound 276, 2-((4,4-difluorocyclohexyl)amino)-6-(3,5-dimethyl-1H-pyrazol-1-yl)pyridin-4-ol]",+ (+ means >1 uM)
6,"COCC1CN(c2cc(NC3CCC(F)(F)CC3)nc(-n3nc(C)cc3C)n2)CCO1 (stereo not drawn) [Compound 194, N-(4,4-difluorocyclohexyl)-2-(3,5-dimethyl-1H-pyrazol-1-yl)-6-(2-(methoxymethyl)morpholino)pyrimidin-4-amine]",++ (++ means 200 nM-1000 nM)
7,"Cc1cc(C)n(-c2nc(CN(C)C)cc(NC3CCC(F)(F)CC3)n2)n1 [Compound 177, N-(4,4-difluorocyclohexyl)-2-(3,5-dimethyl-1H-pyrazol-1-yl)-6-((dimethylamino)methyl)pyrimidin-4-amine]",+ (+ means >1 uM)
8,"Cc1cc(C)n(-c2cc(N(C)C3COC3)cc(NC3CCC(F)(F)CC3)n2)n1 [Compound 238, N2-(4,4-difluorocyclohexyl)-6-(3,5-dimethyl-1H-pyrazol-1-yl)-N4-methyl-N4-(oxetan-3-yl)pyridine-2,4-diamine]",++ (++ means 200 nM-1000 nM)
9,Cc1cc(C)n(-c2nc(NC3CCC(F)(F)CC3)cc(C(C)O)n2)n1 (stereo not drawn) [Compound 136],++ (++ means 200 nM-1000 nM)
10,"Cc1cc(C)n(-c2nc(NC3CCC(F)(F)CC3)cc(NC(C)c3nccs3)n2)n1 (stereo not drawn) [Compound 124, N4-(4,4-difluorocyclohexyl)-2-(3,5-dimethyl-1H-pyrazol-1-yl)-N6-(1-(thiazol-2-yl)ethyl)pyrimidine-4,6-diamine]",+ (+ means >1 uM)
11,"Cc1cc(C)n(-c2nc(NC3CCC(F)(F)C3)cc(C(F)F)n2)n1 (stereo not drawn) [Compound 168, N-(3,3-difluorocyclopentyl)-6-(difluoromethyl)-2-(3,5-dimethyl-1H-pyrazol-1-yl)pyrimidin-4-amine]",+ (+ means >1 uM)
12,"Cc1cc(C)n(-c2nc(NC3CCC(F)(F)CC3)cc(N3CC(C)OC(C)C3)n2)n1 (stereo not drawn) [Compound 190, N-(4,4-difluorocyclohexyl)-2-(3,5-dimethyl-1H-pyrazol-1-yl)-6-(2,6-dimethylmorpholino)pyrimidin-4-amine]",++ (++ means 200 nM-1000 nM)
13,"Cc1ccn(-c2nc(NC3CCC(F)(F)CC3)cc(C3COCCC3(F)F)n2)n1 (stereo not drawn) [Compound 242, N-(4,4-difluorocyclohexyl)-6-(4,4-difluorotetrahydro-2H-pyran-3-yl)-2-(3-methyl-1H-pyrazol-1-yl)pyrimidin-4-amine]",+ (+ means >1 uM)
14,"Cc1ccn(-c2nc(NC3CCC(F)(F)CC3)cc(OC3CN(C(=O)C(C)(C)C)C3)n2)n1 [Compound 211, 1-(3-((6-((4,4-difluorocyclohexyl)amino)-2-(3-methyl-1H-pyrazol-1-yl)pyrimidin-4-yl)oxy)azetidin-1-yl)-2,2-dimethylpropan-1-one]",+++ (+++ means <200 nM)
15,"FCc1ccn(-c2nc(NC3CCC(F)(F)CC3)cc(OC3COC3)n2)n1 [Compound 285, N-(4,4-difluorocyclohexyl)-2-(3-(fluoromethyl)-1H-pyrazol-1-yl)-6-(oxetan-3-yloxy)pyrimidin-4-amine]",+ (+ means >1 uM)

# Same assay, conditions: whole-cell patch-clamp, HEK293 cells expressing SK2 channels; concentration that increases the basal current by 100%
row,SMILES,SC100 (μM)
1,"CCC(O)c1ccn(-c2nc(C)cc(NC3CCC(F)(F)CC3)n2)n1 (stereo not drawn) [IN11251-011-P2, 1-(1-(4-((4,4-difluorocyclohexyl)amino)-6-methylpyrimidin-2-yl)-1H-pyrazol-3-yl)propan-1-ol]",+ (+ means >1 uM)
2,Cc1ccn(-c2cc(COC(=O)N(C)C)cc(NC3CCC(F)(F)CC3)n2)n1 [IN11039-006-P1],+++ (+++ means <200 nM)
3,COCC1CN(c2cc(NC3CCC(F)(F)CC3)nc(-c3nc(C)cs3)n2)CCN1C (stereo not drawn) [IN10864-060-P1],+++ (+++ means <200 nM)
4,"Cc1ccn(-c2cc3c(c(NC4CCC(F)(F)CC4)n2)CCCC3)n1 [IN11039-036-P1, N-(4,4-difluorocyclohexyl)-3-(3-methyl-1H-pyrazol-1-yl)-5,6,7,8-tetrahydro isoquinolin-1-amine]",+ (+ means >1 uM)
5,"COC(C)c1cc(NC2CCC(F)(F)CC2)nc(-n2ccc(C)n2)n1 (stereo not drawn) [IN10973-083-P1, N-(4,4-difluorocyclohexyl)-6-(1-methoxyethyl)-2-(3-methyl-1H-pyrazol-1-yl)pyrimidin-4-amine]",+ (+ means >1 uM)
6,Cc1ccn(-c2nc(NC3CCC(F)(F)CC3)cc(S(C)(=O)=O)n2)n1 [IN10973-041-P1],+ (+ means >1 uM)
7,"CC(=O)NCc1cc(NC2CCC(F)(F)CC2)nc(-c2nc(CF)cs2)c1 [NSSy5644, N-((2-((4,4-difluorocyclohexyl)amino)-6-(4-(fluoromethyl)thiazol-2-yl)pyridin-4-yl)methyl) acetamide]",++ (++ means 200 nM-1000 nM)
8,Fc1ccn(-c2cc(N3CC4(COC4)C3)nc(NC3CCC(F)(F)CC3)n2)n1 [NSSy6467],+ (+ means >1 uM)
9,Cc1ccn(-c2cc(N3CC4COCC4C3)nc(NC3CCC(F)(F)CC3)n2)n1 (stereo not drawn) [NSSy6585],+ (+ means >1 uM)
10,"CC(O)c1cc(NC2CCC(F)(F)CC2)nc(-n2ccc(C(F)(F)F)n2)n1 (stereo not drawn) [IN11053-062-P1, 1-(6-((4,4-difluorocyclohexyl)amino)-2-(3-(trifluoromethyl)-1H-pyrazol-1-yl)pyrimidin-4-yl)ethan-1-ol]",+ (+ means >1 uM)
11,Cc1ccn(-c2cc(OC3CCS(=O)(=O)CC3)nc(NC3CCC(F)(F)CC3)n2)n1 [NSSy6913],++ (++ means 200 nM-1000 nM)
12,"Cn1cnc(COc2cc(NC3CCC(F)(F)CC3)nc(-c3nc(CF)cs3)n2)n1 [NSSy5624, N-(4,4-difluorocyclohexyl)-2-(4-(fluoromethyl)thiazol-2-yl)-6-((1-methyl-1H-1,2,4-triazol-3-yl)methoxy)pyrimidin-4-amine]",+ (+ means >1 uM)
13,COC(=O)N(C)Cc1cc(NC2CCC(F)(F)CC2)nc(-c2nc(C)cs2)c1 [IN11251-043-P1],++ (++ means 200 nM-1000 nM)
14,Cc1nc(-c2nc(NC3CCC(F)(F)CC3)cc(N3CCS(=O)(=O)CC3)n2)cs1 [NSSy6165],+ (+ means >1 uM)
15,Cc1csc(-c2cc(N3CC(N(C)C)C3)cc(NC3CCC(F)(F)CC3)n2)n1 [NSSy5677],++ (++ means 200 nM-1000 nM)
16,Cc1csc(-c2nc(NC3CCC(F)(F)CC3)cc(OCc3cnnn3C)n2)n1 [NSSy5625],+++ (+++ means <200 nM)
17,Cc1cc(-n2nc(C)cc2C)nc(NC2CCC(F)(F)CC2)n1 [NSSy6593],++ (++ means 200 nM-1000 nM)
18,"Cc1ccc(-c2nc(NC3CCC(F)(F)CC3)cc(N3CCOCC3)n2)n1C [IN10971-059-P1, N-(4,4-difluorocyclohexyl)-2-(1,5-dimethyl-1H-pyrrol-2-yl)-6-morpholino pyrimidin-4-amine]",+ (+ means >1 uM)
19,"Cc1ccn(-c2cc(N3CCOC(CO)C3)nc(NC3CCC(F)(F)CC3)n2)n1 (stereo not drawn) [NSSy6986, (4-(2-((4,4-difluorocyclohexyl)amino)-6-(3-methyl-1H-pyrazol-1-yl)pyrimidin-4-yl)morpholin-2-yl)methanol]",++ (++ means 200 nM-1000 nM)
20,"COC(=O)NCc1cc(NC2CCC(F)(F)CC2)nc(-n2ccc(CF)n2)c1 [NSSy5653, methyl ((2-((4,4-difluorocyclohexyl)amino)-6-(3-(fluoromethyl)-1H-pyrazol-1-yl)pyridin-4-yl)methyl)carbamate]",++ (++ means 200 nM-1000 nM)
21,Cc1csc(-c2nc(NC3CCC(F)(F)CC3)cc(N3CC4CC3CO4)n2)n1 (stereo not drawn) [NSSy6116],++ (++ means 200 nM-1000 nM)
22,Cc1csc(-c2nc(NC3CCCC(C(F)(F)F)C3)cc(C(C)O)n2)n1 (stereo not drawn) [IN10880-085-P1],+ (+ means >1 uM)
23,"CC(=O)c1cc(NC2CCC(F)(F)CC2)nc(-n2nc(C)cc2C)n1 [IN10881-040-P1, 1-(6-((4,4-difluorocyclohexyl)amino)-2-(3,5-dimethyl-1H-pyrazol-1-yl)pyrimidin-4-yl)ethan-1-one]",+ (+ means >1 uM)
24,"COCc1cc(-c2nc(C)cs2)nc(NC2CCC(F)(F)CC2)n1 [NSSy6711, N-(4,4-difluorocyclohexyl)-4-(methoxymethyl)-6-(4-methylthiazol-2-yl)pyrimidin-2-amine]",++ (++ means 200 nM-1000 nM)
25,Cc1ccn(-c2cc(N3CC(N(C)C)C3)cc(NC3CCC(F)(F)CC3)n2)n1 [NSSy5763],++ (++ means 200 nM-1000 nM)
26,"Cc1ccn(-c2cc(C(O)Cc3cnnn3C)cc(NC3CCC(F)(F)CC3)n2)n1 (stereo not drawn) [NSSy7065, 1-(2-((4,4-difluorocyclohexyl)amino)-6-(3-methyl-1H-pyrazol-1-yl)pyridin-4-yl)-2-(1-methyl-1H-1,2,3-triazol-5-yl) ethan-1-ol]",++ (++ means 200 nM-1000 nM)
27,Cc1ccn(-c2nc(NC3CCCCC3C)cc(C(C)O)n2)n1 (stereo not drawn) [IN10880-059-P1],+ (+ means >1 uM)
